Results taken from patent US11021470B2, “2-substituted quinazoline compounds comprising a substituted heterocyclic group and methods of use thereof” (Araxes Pharma LLC, priority 2015, dated 2021).

Target: T1, KRAS G12C 1-169, his-tagged protein, GDP-loaded (Homo sapiens, UniProt P01116, G12C)
T1 construct: KRAS G12C 1-169, his-tagged protein, GDP-loaded
Experiment: KRAS G12C covalent binding (% modification) by mass spectrometry, ten or three minute incubation
How it was run: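 GDP-loaded protein in 20 mM Hepes, 150 mM NaCl, 1 mM MgCl2 was incubated with compound (final 100, 30 or 10 μM; 2% DMSO) at room temperature, then quenched with formic acid. Intact-protein LC-MS with charge-envelope deconvolution gave masses and intensities of modified and unmodified species.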

[1] = covalent binding to KRAS G12C, % modification after a three minute incubation period
[2] = covalent binding to KRAS G12C after a ten minute incubation period

Structure (SMILES) | Binding % [1] | Binding % [2]
C=CC(=O)N1C[C@H](C)N(c2nc(OCCn3ccnc3CC)nc3c(F)c(-c4c(C)ccc5[nH]ncc45)c(Cl)cc23)C[C@H]1C [Compound 283, 1-((2R,5S)-4-(6-chloro-2-(2-(2-ethyl-1H-imidazol-1-yl)ethoxy)-8-fluoro-7-(5-methyl-1H-indazol-4-yl)quinazolin-4-yl)-2,5-dimethylpiperazin-1-yl)prop-2-en-1-one] | +++ (+++ indicates binding activity greater than 90%) | 
C=CC(=O)N1C[C@H](C)N(c2nc(OCCn3ccnc3C#N)nc3c(F)c(-c4c(O)cccc4F)c(Cl)cc23)C[C@H]1C (atropisomer, axis not shown) [Compound 278, 1-(2-(4-((2S,5R)-4-acryloyl-2,5-dimethylpiperazin-1-yl)-6-chloro-8-fluoro-7-((S)-2-fluoro-6-hydroxyphenyl)quinazolin-2-yloxy)ethyl)-1H-imidazole-2-carbonitrile] | ++ (++ indicates binding activity from 50 to 90%) | 
C=CC(=O)N1C[C@H](C)N(c2nc(OCCn3ccnc3C3CC3)nc3c(F)c(-c4c(O)cccc4F)c(Cl)cc23)C[C@H]1C (atropisomer, axis not shown) [Compound 275, 1-((2R,5S)-4-(6-chloro-2-(2-(2-cyclopropyl-1H-imidazol-1-yl)ethoxy)-8-fluoro-7-((S)-2-fluoro-6-hydroxyphenyl)quinazolin-4-yl)-2,5-dimethylpiperazin-1-yl)prop-2-en-1-one] | +++ (+++ indicates binding activity greater than 90%) | 
C=CC(=O)N1C[C@H](C)N(c2nc(N3CC(N(C)C)C3)nc3c(F)c(-c4c[nH]c5c(F)cccc45)c(Cl)cc23)C[C@H]1C [Compound 294, 1-((2R,5S)-4-(6-chloro-2-(3-(dimethylamino)azetidin-1-yl)-8-fluoro-7-(7-fluoro-1H-indol-3-yl)quinazolin-4-yl)-2,5-dimethylpiperazin-1-yl)prop-2-en-1-one] | + (+ indicates binding activity greater than 0% and up to 50%) | 
C=CC(=O)N1C[C@H](C)N(c2nc(N3CC(N(C)C)C3)nc3c(F)c(-c4c(C)ccc5[nH]nc(CO)c45)c(Cl)cc23)C[C@H]1C [Compound 299, 1-((2R,5S)-4-(6-chloro-2-(3-(dimethylamino)azetidin-1-yl)-8-fluoro-7-(3-(hydroxymethyl)-5-methyl-1H-indazol-4-yl)quinazolin-4-yl)-2,5-dimethylpiperazin-1-yl)prop-2-en-1-one] | ++ (++ indicates binding activity from 50 to 90%) | 
C=CC(=O)N1C[C@H](C)N(c2nc(OCCn3ccnc3C3CC3)nc3c(F)c(-c4c(C)ccc5[nH]ncc45)c(Cl)cc23)C[C@H]1C [Compound 276, 1-((2R,5S)-4-(6-chloro-2-(2-(2-cyclopropyl-1H-imidazol-1-yl)ethoxy)-8-fluoro-7-(5-methyl-1H-indazol-4-yl)quinazolin-4-yl)-2,5-dimethylpiperazin-1-yl)prop-2-en-1-one] | ++ (++ indicates binding activity from 50 to 90%) | 
C=CC(=O)N1C[C@H](C)N(c2nc(OCCN3CC(F)(F)C3)nc3c(F)c(-c4c(O)cccc4F)c(Cl)cc23)C[C@H]1C (atropisomer, axis not shown) [Compound 90, 1-((2R,5S)-4-(6-chloro-2-(2-(3,3-difluoroazetidin-1-yl)ethoxy)-8-fluoro-7-((S)-2-fluoro-6-hydroxyphenyl)quinazolin-4-yl)-2,5-dimethylpiperazin-1-yl)prop-2-en-1-one] | ++ (++ indicates binding activity from 50 to 90%) | 
C=CC(=O)N1C[C@H](C)N(c2nc(N3CC(N(C)C)C3)nc3c(F)c(-c4cc(O)cc5ccccc45)c(C(F)(F)F)cc23)C[C@H]1C (atropisomer, axis not shown) [Compound 255, 1-((2R,5S)-4-(2-(3-(dimethylamino)azetidin-1-yl)-8-fluoro-7-((R)-3-hydroxynaphthalen-1-yl)-6-(trifluoromethyl)quinazolin-4-yl)-2,5-dimethylpiperazin-1-yl)prop-2-en-1-one] | +++ (+++ indicates binding activity greater than 90%) | 
C=CC(=O)N1C[C@H](C)N(c2nc(N3CC(N(C)C)C3)nc3c(F)c(-c4c(C)ccc5[nH]nc(N)c45)c(Cl)cc23)C[C@H]1C [Compound 298, 1-((2R,5S)-4-(7-(3-amino-5-methyl-1H-indazol-4-yl)-6-chloro-2-(3-(dimethylamino)azetidin-1-yl)-8-fluoroquinazolin-4-yl)-2,5-dimethylpiperazin-1-yl)prop-2-en-1-one] | ++ (++ indicates binding activity from 50 to 90%) | 
C=CC(=O)N1C[C@H](C)N(c2nc(N3CC(N(C)C)C3)nc3c(F)c(-c4cc(O)cc5ccccc45)c(C(F)(F)F)cc23)C[C@H]1C [Compound 178, 1-((2R,5S)-4-(2-(3-(dimethylamino)azetidin-1-yl)-8-fluoro-7-(3-hydroxynaphthalen-1-yl)-6-(trifluoromethyl)quinazolin-4-yl)-2,5-dimethylpiperazin-1-yl)prop-2-en-1-one] | +++ (+++ indicates binding activity greater than 90%) | 
[2H]C([2H])([2H])N(C1CN(c2nc(N3C[C@@H](C)N(C(=O)C=C)C[C@@H]3C)c3cc(Cl)c(-c4c(O)cccc4F)c(F)c3n2)C1)C([2H])([2H])[2H] [Compound 196, 1-((2R,5S)-4-(2-(3-(bis(trideuteromethyl)amino)azetidin-1-yl)-6-chloro-8-fluoro-7-(2-fluoro-6-hydroxyphenyl)quinazolin-4-yl)-2,5-dimethylpiperazin-1-yl)prop-2-en-1-one] | +++ (+++ indicates binding activity greater than 90%) | 
C=CC(=O)N1C[C@H](C)N(c2nc(OCCc3cncn3C)nc3c(F)c(-c4c(O)cccc4F)c(Cl)cc23)C[C@H]1C (atropisomer, axis not shown) [Compound 284, 1-((2R,5S)-4-(6-chloro-8-fluoro-7-((S)-2-fluoro-6-hydroxyphenyl)-2-(2-(1-methyl-1H-imidazol-5-yl)ethoxy)quinazolin-4-yl)-2,5-dimethylpiperazin-1-yl)prop-2-en-1-one] | +++ (+++ indicates binding activity greater than 90%) | 
C=CC(=O)N1C[C@H](C)N(c2nc(N3CC(N(C)C)C3)nc3c(F)c(-c4c(C)ccc5c(C)n[nH]c45)c(Cl)cc23)C[C@H]1C [Compound 246, 1-((2R,5S)-4-(6-chloro-7-(3,6-dimethyl-1H-indazol-7-yl)-2-(3-(dimethylamino)azetidin-1-yl)-8-fluoroquinazolin-4-yl)-2,5-dimethylpiperazin-1-yl)prop-2-en-1-one] | + (+ indicates binding activity greater than 0% and up to 50%) | 
C=CC(=O)N1C[C@H](C)N(c2nc(OCCn3cnc4ccccc43)nc3c(F)c(-c4c(O)cccc4F)c(Cl)cc23)C[C@H]1C [Compound 254, 1-((2R,5S)-4-(2-(2-(1H-benzo[d]imidazol-1-yl)ethoxy)-6-chloro-8-fluoro-7-(2-fluoro-6-hydroxyphenyl)quinazolin-4-yl)-2,5-dimethylpiperazin-1-yl)prop-2-en-1-one] | + (+ indicates binding activity greater than 0% and up to 50%) | 
C=CC(=O)N1CCN(c2nc(N3CC(N(C)C)C3)nc3c(F)c(-c4c(O)cccc4F)c(Cl)cc23)C[C@@H]1C [Compound 82, 1-((2S)-4-(6-chloro-2-(3-(dimethylamino)azetidin-1-yl)-8-fluoro-7-(2-fluoro-6-hydroxyphenyl)quinazolin-4-yl)-2-methylpiperazin-1-yl)prop-2-en-1-one] |  | ++ (++ indicates binding activity from 50 to 90%)
C=CC(=O)N1C[C@@H](C)N(c2nc(N3CC(N(C)C)C3)nc3c(F)c(-c4c(O)cccc4F)c(Cl)cc23)C[C@H]1C [Compound 80, 1-((2R,5R)-4-(6-chloro-2-(3-(dimethylamino)azetidin-1-yl)-8-fluoro-7-(2-fluoro-6-hydroxyphenyl)quinazolin-4-yl)-2,5-dimethylpiperazin-1-yl)prop-2-en-1-one] |  | + (+ indicates binding activity greater than 0% and up to 50%)
C=CC(=O)N1C[C@H](C)N(c2nc(OCC(C)(C)N)nc3c(F)c(-c4c(O)cccc4F)c(Cl)cc23)C[C@H]1C [Compound 274, 1-((2R,5S)-4-(2-(2-amino-2-methylpropoxy)-6-chloro-8-fluoro-7-(2-fluoro-6-hydroxyphenyl)quinazolin-4-yl)-2,5-dimethylpiperazin-1-yl)prop-2-en-1-one] | + (+ indicates binding activity greater than 0% and up to 50%) | 
C=CC(=O)N1CCN(c2nc(OCCc3ncccn3)nc3c(F)c(-c4c(O)cccc4F)c(Cl)cc23)C[C@H]1C (atropisomer, axis not shown) [Compound 267, 1-((R)-4-(6-chloro-8-fluoro-7-((R)-2-fluoro-6-hydroxyphenyl)-2-(2-(pyrimidin-2-yl)ethoxy)quinazolin-4-yl)-2-methylpiperazin-1-yl)prop-2-en-1-one] | + (+ indicates binding activity greater than 0% and up to 50%) | 
C=CC(=O)N1C[C@H](C)N(c2nc(N3CC(N(C)C)C3)nc3c(F)c(-c4cc(O)cc5ccccc45)c(C(F)(F)F)cc23)C[C@H]1C (atropisomer, axis not shown) [Compound 256, 1-((2R,5S)-4-(2-(3-(dimethylamino)azetidin-1-yl)-8-fluoro-7-((S)-3-hydroxynaphthalen-1-yl)-6-(trifluoromethyl)quinazolin-4-yl)-2,5-dimethylpiperazin-1-yl)prop-2-en-1-one] | + (+ indicates binding activity greater than 0% and up to 50%) | 
C=CC(=O)N1C[C@H](C)N(c2nc(N3CC(N(C)C)C3)nc3c(F)c(-c4c(O)cccc4F)c(C(F)(F)F)cc23)C[C@H]1C (atropisomer, axis not shown) [Compound 270, 1-((2R,5S)-4-(2-(3-(dimethylamino)azetidin-1-yl)-8-fluoro-7-((R)-2-fluoro-6-hydroxyphenyl)-6-(trifluoromethyl)quinazolin-4-yl)-2,5-dimethylpiperazin-1-yl)prop-2-en-1-one] | +++ (+++ indicates binding activity greater than 90%) | 
